In patent publication US20140045873A1, “NOVEL MICROBIOCIDES” (SYNGENTA PARTICIPATIONS AG, priority 2010, published 2014):
Read-outs that look alike come from different tables or passages of the source.

Tests used:
[1] = test system: Mycosphaerella graminicola (Septoria tritici); test: Mycosphaerella graminicola (Septoria tritici) / liquid culture (Septoria blotch); assay type: cell-based; conditions: Zymoseptoria tritici; 200 ppm, liquid culture, PDB, 24° C., 4-5 days after application; read-out: control of Mycosphaerella graminicola (inhibition of growth, photometric)
[2] = test system: Puccinia recondita f. sp. tritici; conditions: in Triticum aestivum, foliar, read-out: control of Puccinia recondita f. sp. tritici (percent disease control compared to untreated)
[3] = test system: Puccinia recondita f. sp. tritici; conditions: in Triticum aestivum, foliar, read-out: control of Puccinia recondita f. sp. tritici (percent disease control compared to untreated); remark: listed apart in the source
[4] = test system: Phaeosphaeria nodorum (Septoria nodorum); conditions: Parastagonospora nodorum, in Triticum aestivum, foliar, read-out: control of Phaeosphaeria nodorum (percent disease control compared to untreated)
[5] = test system: Glomerella lagenarium (Colletotrichum lagenarium); test: Glomerella lagenarium (Colletotrichum lagenarium) / liquid culture (anthracnose); assay type: cell-based; conditions: Colletotrichum orbiculare; 200 ppm, liquid culture, PDB, 24° C., 3-4 days after application; read-out: control of Glomerella lagenarium (inhibition of growth, photometric)
[6] = test system: Thanatephorus cucumeris (Rhizoctonia solani); conditions: read-out: control of Thanatephorus cucumeris (inhibition of growth, photometric)
Pythium ultimum = Pythium ultimum / liquid culture (seedling damping off); assay type: cell-based; conditions: Globisporangium ultimum, potato dextrose broth, 24° C., 2-3 days after application, read-out: control of Pythium ultimum (inhibition of growth, photometric)
Gaeumannomyces graminis = Gaeumannomyces graminis / liquid culture (take-all of cereals); assay type: cell-based; conditions: 200 ppm, liquid culture, PDB, 24° C., 4-5 days after application, read-out: control of Gaeumannomyces graminis (inhibition of growth, photometric)
[7] = test system: Mycosphaerella arachidis (Cercospora arachidicola); test: Mycosphaerella arachidis (Cercospora arachidicola) / liquid culture (early leaf spot); assay type: cell-based; conditions: 200 ppm, liquid culture, PDB, 24° C., 4-5 days after application, read-out: control of Mycosphaerella arachidis (inhibition of growth, photometric)
Pyrenophora teres = conditions: in Hordeum vulgare, foliar, read-out: control of Pyrenophora teres (disease control compared to untreated)
[8] = test system: Botryotinia fuckeliana (Botrytis cinerea); test: Botryotinia fuckeliana (Botrytis cinerea) / liquid culture (gray mould); assay type: cell-based; conditions: Vogels broth, 24° C., 3-4 days after application, read-out: control of Botryotinia fuckeliana (inhibition of growth, photometric)
Text: Botryotinia Fuckeliana (Botrytis cinerea)/Liquid Culture (Gray Mould): Conidia of the fungus from cryogenic storage were directly mixed into nutrient broth (Vogels broth). […].45

Alternaria solani = Alternaria solani / tomato / leaf disc (early blight); assay type: in vivo; conditions: foliar, tomato leaf disks cv. Baby, inoculated 2 days after application, assessed 5-7 days after application, read-out: control of Alternaria solani (percent disease control compared to untreated)
Experimental: The inoculated leaf disks were incubated at 23° C./21° C. […].44

[9] = test system: Monographella nivalis (Microdochium nivale); test: Monographella nivalis (Microdochium nivale) / liquid culture (foot rot cereals); assay type: cell-based; conditions: PDB, 24° C., 4-5 days after application, read-out: control of Monographella nivalis (inhibition of growth, photometric)

C/C(=N\OCCCc1cccc(-c2nc(C)cc(C)n2)n1)c1cccc(C)n1 [P.05]
≥ 80%: inhibition at 200 ppm [1] | pest or weed control at 200 ppm [2] | pest or weed control at 200 ppm [3] | pest or weed control at 200 ppm [4] | inhibition at 200 ppm [5] | inhibition at 200 ppm [6] | inhibition at 200 ppm (Pythium ultimum) | inhibition at 200 ppm (Gaeumannomyces graminis) | inhibition at 200 ppm [7] | pest or weed control at 200 ppm (Pyrenophora teres)

CCOc1cc(C)nc(-c2cccc(CCCO/N=C(\C)c3cccc(C)n3)n2)c1 [P.12]
≥ 80%: pest or weed control at 200 ppm [2] | pest or weed control at 200 ppm [3] | pest or weed control at 200 ppm [4] | inhibition at 200 ppm [5] | inhibition at 200 ppm [6] | inhibition at 200 ppm [8] | inhibition at 200 ppm (Pythium ultimum) | pest or weed control at 200 ppm (Alternaria solani) | inhibition at 200 ppm [7] | inhibition at 200 ppm [9] | pest or weed control at 200 ppm (Pyrenophora teres)

COc1cc(C)nc(-c2cccc(CCCO/N=C(\C)c3cc(C)cc(C)n3)n2)c1 [P.13]
≥ 80%: inhibition at 200 ppm [1] | pest or weed control at 200 ppm [2] | pest or weed control at 200 ppm [3] | pest or weed control at 200 ppm [4] | inhibition at 200 ppm [5] | inhibition at 200 ppm [8] | inhibition at 200 ppm (Pythium ultimum) | inhibition at 200 ppm (Gaeumannomyces graminis) | pest or weed control at 200 ppm (Alternaria solani) | inhibition at 200 ppm [7] | inhibition at 200 ppm [9] | pest or weed control at 200 ppm (Pyrenophora teres)

C/C(=N\OCCCc1cccc(-c2cc(Br)cc(C)n2)n1)c1cccc(C)n1 [P.18]
≥ 80%: inhibition at 200 ppm [1] | pest or weed control at 200 ppm [2] | pest or weed control at 200 ppm [3] | pest or weed control at 200 ppm [4] | inhibition at 200 ppm [5] | inhibition at 200 ppm (Pythium ultimum) | inhibition at 200 ppm (Gaeumannomyces graminis) | inhibition at 200 ppm [7] | inhibition at 200 ppm [9] | pest or weed control at 200 ppm (Pyrenophora teres)

C/C(=N\OCCCc1cccc(-c2cc(C)cc(C)n2)n1)c1cccc(C)n1 [P.19]
≥ 80%: inhibition at 200 ppm [1] | pest or weed control at 200 ppm [2] | pest or weed control at 200 ppm [3] | pest or weed control at 200 ppm [4] | inhibition at 200 ppm (Pythium ultimum) | inhibition at 200 ppm (Gaeumannomyces graminis) | inhibition at 200 ppm [7] | pest or weed control at 200 ppm (Pyrenophora teres)

C/C(=N\OCCCc1cccc(-c2cccc(C)n2)n1)c1cccc(C)n1 [P.21]
≥ 80%: inhibition at 200 ppm [1] | pest or weed control at 200 ppm [2] | pest or weed control at 200 ppm [3] | pest or weed control at 200 ppm [4] | inhibition at 200 ppm [5] | inhibition at 200 ppm [8] | inhibition at 200 ppm (Pythium ultimum) | inhibition at 200 ppm (Gaeumannomyces graminis) | pest or weed control at 200 ppm (Alternaria solani) | inhibition at 200 ppm [7] | pest or weed control at 200 ppm (Pyrenophora teres)

CON=C(C)c1ccc(-c2cccc(CCCO/N=C(\C)c3cccc(C)n3)n2)nc1C [P.22]
≥ 80%: inhibition at 200 ppm [1] | pest or weed control at 200 ppm [2] | pest or weed control at 200 ppm [3] | pest or weed control at 200 ppm [4] | inhibition at 200 ppm [5] | inhibition at 200 ppm [8] | inhibition at 200 ppm (Gaeumannomyces graminis) | pest or weed control at 200 ppm (Alternaria solani) | inhibition at 200 ppm [7] | pest or weed control at 200 ppm (Pyrenophora teres)

C=CCOc1cc(C)nc(-c2cccc(CCCO/N=C(\C)c3cccc(C)n3)n2)c1 [P.25]
≥ 80%: inhibition at 200 ppm [1] | pest or weed control at 200 ppm [2] | pest or weed control at 200 ppm [3] | pest or weed control at 200 ppm [4] | inhibition at 200 ppm [5] | inhibition at 200 ppm [6] | inhibition at 200 ppm [8] | inhibition at 200 ppm (Pythium ultimum) | inhibition at 200 ppm (Gaeumannomyces graminis) | inhibition at 200 ppm [7] | inhibition at 200 ppm [9] | pest or weed control at 200 ppm (Pyrenophora teres)

CCOc1cc(C)nc(-c2cccc(CCCO/N=C(\C)c3cc(C)cc(C)n3)n2)c1 [P.28]
≥ 80%: inhibition at 200 ppm [1] | pest or weed control at 200 ppm [2] | pest or weed control at 200 ppm [3] | pest or weed control at 200 ppm [4] | inhibition at 200 ppm [5] | inhibition at 200 ppm [6] | inhibition at 200 ppm [8] | inhibition at 200 ppm (Pythium ultimum) | inhibition at 200 ppm (Gaeumannomyces graminis) | inhibition at 200 ppm [7] | inhibition at 200 ppm [9] | pest or weed control at 200 ppm (Pyrenophora teres)

C#CCOc1cc(C)nc(-c2cccc(CCCO/N=C(\C)c3cc(C)cc(C)n3)n2)c1 [P.29]
≥ 80%: inhibition at 200 ppm [1] | pest or weed control at 200 ppm [2] | pest or weed control at 200 ppm [3] | pest or weed control at 200 ppm [4] | inhibition at 200 ppm [5] | inhibition at 200 ppm [6] | inhibition at 200 ppm [8] | inhibition at 200 ppm (Gaeumannomyces graminis) | pest or weed control at 200 ppm (Alternaria solani) | inhibition at 200 ppm [7] | inhibition at 200 ppm [9] | pest or weed control at 200 ppm (Pyrenophora teres)

C=CCOc1cc(C)nc(-c2cccc(CCCO/N=C(\C)c3cc(C)cc(C)n3)n2)c1 [P.30]
≥ 80%: inhibition at 200 ppm [1] | pest or weed control at 200 ppm [2] | pest or weed control at 200 ppm [3] | pest or weed control at 200 ppm [4] | inhibition at 200 ppm [5] | inhibition at 200 ppm [6] | inhibition at 200 ppm [8] | inhibition at 200 ppm (Gaeumannomyces graminis) | inhibition at 200 ppm [7] | inhibition at 200 ppm [9] | pest or weed control at 200 ppm (Pyrenophora teres)

CCCOc1cc(C)nc(-c2cccc(CCCO/N=C(\C)c3cc(C)cc(C)n3)n2)c1 [P.31]
≥ 80%: inhibition at 200 ppm [1] | pest or weed control at 200 ppm [2] | pest or weed control at 200 ppm [3] | pest or weed control at 200 ppm [4] | inhibition at 200 ppm [5] | inhibition at 200 ppm [6] | inhibition at 200 ppm [8] | inhibition at 200 ppm (Gaeumannomyces graminis) | inhibition at 200 ppm [7] | inhibition at 200 ppm [9] | pest or weed control at 200 ppm (Pyrenophora teres)

CCc1cc(SC)c(C)c(-c2cccc(CCCO/N=C(\C)c3cccc(C)n3)n2)n1 [P.40]
≥ 80%: inhibition at 200 ppm [1] | pest or weed control at 200 ppm [2] | pest or weed control at 200 ppm [3] | pest or weed control at 200 ppm [4] | inhibition at 200 ppm [5] | inhibition at 200 ppm [6] | inhibition at 200 ppm [8] | inhibition at 200 ppm (Gaeumannomyces graminis) | inhibition at 200 ppm [7] | inhibition at 200 ppm [9] | pest or weed control at 200 ppm (Pyrenophora teres)

CCc1ccc(C)c(-c2cccc(CCCO/N=C(\C)c3cccc(C)n3)n2)n1 [P.42]
≥ 80%: inhibition at 200 ppm [1] | pest or weed control at 200 ppm [2] | pest or weed control at 200 ppm [3] | pest or weed control at 200 ppm [4] | inhibition at 200 ppm [5] | inhibition at 200 ppm [6] | inhibition at 200 ppm [8] | inhibition at 200 ppm (Gaeumannomyces graminis) | pest or weed control at 200 ppm (Alternaria solani) | inhibition at 200 ppm [7] | inhibition at 200 ppm [9] | pest or weed control at 200 ppm (Pyrenophora teres)

COc1cc(C)nc(-c2ccc(OC)c(CCCO/N=C(\C)c3cccc(C)n3)n2)c1 [P.43]
≥ 80%: inhibition at 200 ppm [1] | pest or weed control at 200 ppm [2] | pest or weed control at 200 ppm [3] | pest or weed control at 200 ppm [4] | inhibition at 200 ppm [5] | inhibition at 200 ppm [6] | inhibition at 200 ppm [8] | inhibition at 200 ppm (Pythium ultimum) | inhibition at 200 ppm (Gaeumannomyces graminis) | inhibition at 200 ppm [7] | inhibition at 200 ppm [9] | pest or weed control at 200 ppm (Pyrenophora teres)

C/C(=N\OCCCc1ccnc(-c2cccc(C)n2)n1)c1cccc(C)n1 [P.45, E-1-(6-methyl-2-pyridyl)-N-[3-[2-(6-methyl-2-pyridyl)pyrimidin-4-yl]propoxy]ethanimine]
≥ 80%: inhibition at 200 ppm [1] | pest or weed control at 200 ppm [2] | pest or weed control at 200 ppm [3] | pest or weed control at 200 ppm [4] | inhibition at 200 ppm [5] | inhibition at 200 ppm [6] | inhibition at 200 ppm [8] | inhibition at 200 ppm (Pythium ultimum) | inhibition at 200 ppm [7] | inhibition at 200 ppm [9] | pest or weed control at 200 ppm (Pyrenophora teres)
